Reference: patent US9439961B2, “Pharmaceutical composition for treating ischemic events” (Niigata University, priority 2009, dated 2016)

Columns and labels:
[1] = system: VEGF; assay: Western blotting of VEGF expression in cerebral infarction rat model; assay type: in vivo; conditions: t-PA (with control antibody) four hours after onset of cerebral infarction (FIG. 3)
Procedure: In order to suppress or reduce concomitantly occurring cerebral hemorrhage and cerebral infarction exacerbation accompanied with the administration of the t-PA after an acute stage of cerebral infarction in human, 100 μg of rabbit anti-rat VEGF antibody IgG (RB-222, product of Lab Vision-NeoMarkers, hereinafter “anti-VEGF antibody”) was bolus administered together with the t-PA. In the control experiment, 100 μg of rabbit anti-human IgG (R5G10-048, product of OEM Concepts, hereinafter “control antibody”) was bolus administered together with the t-PA.
Using the total cell extract as a sample, western blotting was performed according to the method described in Shimohata, T., et al. (J. Cereb. Blood Flow Metab. (2007) 27:1463-1475).
The VEGF was detected using anti-VEGF antibody (SC-152, product of Santa Cruz Biotechnologies, dilution ratio: 1:200) as a primary antibody, and peroxidase-conjugated anti-rabbit IgG antibody (dilution ratio: 1:10,000) as a secondary antibody.
Also, in order to confirm that the amounts of the protein applied were uniform in all the samples, β-actin was detected by allowing anti-β-actin (SC-1616, product of Santa Cruz Biotechnologies, dilution ratio: 1:2,000) and the above secondary antibody to react on the blotting membrane from which the primary and secondary antibodies had been removed. […]

[2] = system: cerebral infarction rat model; assay: Motor function scale (5 grades) in cerebral infarction rat model; assay type: in vivo, Sprague-Dawley rats; conditions: 24 h after onset
[3] = system: cerebral infarction rat model; assay: Cerebral infarction rat model (thrombus injection): infarct and edema volume of TTC-stained cerebral coronal section; assay type: in vivo, Sprague-Dawley rats
Source text: Sprague-Dawley rats (male, 8 weeks old, obtained from Charles River Laboratories Japan, Inc.) were used to produce cerebral infarction rat models.
(§1) In the present examples, a cerebral infarction rat model shown in FIG. 1B was produced in order to realize a state where cerebral hemorrhage concomitantly occurs as a result of administration of a thrombolytic agent after the therapeutic time window of the thrombolytic therapy. A thrombus was formed by coagulating rat's autologous blood and thrombin as a gel in a polyethylene tube catheter having a diameter of 0.35 mm (PE-50, product of Becton, Dickinson and Company). The formed thrombus was left to stand overnight and then cut to have a length of 1 mm Using the catheter, the thrombus was injected from the external carotid artery (ECA) 1 to the middle cerebral artery (MCA) 2 of the rat under anesthesia with halothane at 1% by mass to 1.5% by mass. Thereafter, the thus-treated rat was measured for cerebral blood flow (CBF) using a laser Doppler flowmetry (AFL21, product of ADVANCE Co., Ltd., Tokyo) before and 30 min or 24 hours after injection of the thrombus.
In the thrombolytic therapy for the cerebral infarction rat models, t-PA serving as a thrombolytic agent (alteplase, product of Mitsubishi Tanabe Pharma Corporation) was injected for 30 min to the femoral vein of each cerebral infarction rat model 1 hour or 4 hours after the injection of the thrombus (10 mg/kg, 10% bolus administration and 90% drip infusion).
Twenty-four hours after the injection of the thrombus, halothane was excessively administered to the rats for euthanasia which were then perfused with PBS, to thereby prepare an unfixed cerebral coronal section.
The cerebral coronal section was stained with TTC at 37° C. for 15 min in PBS (pH 7.4) containing a triphenyltetrazolium salt (TTC) at 2% by mass, and then scanned with a scanner (CanoScan™, product of Canon Co.).
The cerebral infarction and the volume of edema were calculated according to Swanson, R. A., et al. (J. Cereb. Blood Flow Metab. (1990) 10:290-293).
(§2) The combined administration of the t-PA and the anti-VEGF antibody was performed as described in Example 2. The effects of the combined administration of the t-PA and the anti-VEGF antibody four hours after the onset of cerebral infarction induced by injection of the thrombus were evaluated by measuring the cerebral infarct volume, edema volume, cerebral hemorrhage volume, and motor function scale of the TTC-stained cerebral coronal section prepared 24 hours after the onset of cerebral infarction induced by injection of the thrombus.
The cerebral infarct volume and the edema volume of the TTC-stained cerebral coronal section were calculated according to Swanson, R. A., et al. (J. Cereb. Blood Flow Metab. (1990) 10:290-293). The statistical significance was validated by ANOVA (analysis of variance), and post hoc comparisons were performed by the Tukey method.

[4] = system: cerebral infarction rat model; assay: Cerebral hemorrhage volume (hemoglobin concentration, spectrophotometer) in cerebral infarction rat model; assay type: in vivo, Sprague-Dawley rats; conditions: SU1498 20 mg/kg in DMSO single bolus with t-PA four hours after onset; 24 h after onset; vs t-PA and DMSO; P=0.005 (FIG. 5C)
Source text: as §1, with “The formed thrombus was left to stand overnight and then cut to have a length of 1 mm Using the catheter, the thrombus was injected from the external carotid artery (ECA) 1 to the middle cerebral artery (MCA) 2 of the rat under anesthesia with halothane at 1% by mass to 1.5% by mass.” left out, “thrombus. […]” for “thrombus.”
as §2, with “thrombus. […]” for “thrombus.”

[5] = t-PA 10 mg/kg i.v. four hours after injection of thrombus, vs t-PA one hour after (FIG. 2C)

t-PA: t-PA serving as a thrombolytic agent (alteplase, product of Mitsubishi Tanabe Pharma Corporation)
expression level of the VEGF (western blot) [1]: considerably increase
motor function scale (prognosis) ([2]; t-PA and control antibody four hours after onset, vs control antibody only (FIG. 4D)): worse in prognosis
area where cerebral infarction occurred [3, 5]: enlargement
hemorrhage in the area where cerebral infarction occurred [3, 5]: considerably observed
area where cerebral infarction occurred ([3]; t-PA 10 mg/kg i.v. one hour after injection of thrombus, section 24 h after, vs animal receiving no t-PA (FIG. 2B)): smaller

CC(C)c1cc(/C=C(\C#N)C(=O)NCCCc2ccccc2)cc(C(C)C)c1O [SU1498, (E)-3-(3,5-diisopropyl-4-hydroxyphenyl)-2-((3-phenyl-n-propyl)amino-carbonyl)acrylonitrile]
cerebral hemorrhage volume (hemoglobin concentration) [4]: could reduce
motor function scale (prognosis) ([2]; SU1498 20 mg/kg with t-PA four hours after onset, vs t-PA and DMSO, n=10 (FIG. 5D)): better in prognosis
cerebral infarct volume ([3]; SU1498 20 mg/kg in DMSO single bolus with t-PA four hours after onset, 24 h after onset, vs t-PA and DMSO, n=6 (FIG. 5A)): could not reduce
edema volume ([3]; SU1498 20 mg/kg in DMSO single bolus with t-PA four hours after onset, 24 h after onset, vs t-PA and DMSO, n=6 (FIG. 5B)): could not reduce
